In patent US7705065B2, “Photoinitiator functionalized with alkoxy groups” (Xerox Corporation, priority 2007, dated 2010) one finds solubility in monomers data, which are given here for one compound.

The series in a line: Solubility of about 10 wt % photoinitiator in alkoxy-containing curable monomers. The format is physicochemical. The note with it: about 10 wt % solutions in each of SR9003, SR209, SR399LV and SR454; about room temperature (approximately 22° C. to 27° C.). From the text: The following monomers were used for testing: 1) SR9003 (propoxylated neopentyl glycol diacrylate), 2) SR209 (tetraethylene glycol dimethacrylate), 3) SR399LV (low viscosity dipentaerythritol pentacrylate esters), and 4) SR454 (ethoxylated trimethylolpropane triacrylate esters).

Regarding `CC(C)(O)C(=O)c1ccc(OCCO)cc1` [IRGACURE® 2959, 4-(2-hydroxyethyloxy)phenyl-(2-hydroxy-2-propyl) ketone], the solubility in monomers result is on record as “insoluble”.
